Laboratory results as given in US5861300A, “Antiviral transgenic plants, vectors, cells and methods” (The Cleveland Clinic Foundation, priority 1995, dated 1999).
Blank lines part the entries; values can stand above or below the molecule they belong to.

Columns and labels:
[1] = tested on: murine 2-5A-dependent RNase (truncated recombinant clone ZB1 and naturally occurring L929 cell enzyme); experiment: uv covalent crosslinking of 2-5A probe with unlabeled oligonucleotide competitors; assay type: binding; details: for competition with 2-5A probe for binding to protein: competitor 100 nM, recombinant 74 kDa protein in wheat germ extract, similar profile with L929 cell enzyme; for concentration required to prevent 2-5A probe binding: both proteins (recombinant ZB1 and naturally occurring)
Procedure: (§1) The synthesis of the 2-5A probe, p(A2'p)2 (br^8 A2'p)2 A[32P]Cp, and its crosslinking to 2-5A-dependent RNase is performed exactly as described. See Nolan-Sorden, N. L. et al., Anal. Biochem., 184:298-304 (1990). Briefly, the 2-5A probe, about 0.7 to 2.5 nM at […], is incubated for about one hour on ice with cell extract prepared as described, Silverman, R. H. and Krause, D., I.R.L. Press, Oxford, England, pp. 149-193 (1987), in the absence or presence of unlabeled oligonucleotide competitors. Covalent crosslinking is done under a uv lamp (308 nm) for one hour on ice and the proteins are separated on SDS/10% polyacrylamide gels. Filter assays for 2-5A binding activity using the 2-5A probe for about one hour on ice, as described in Knight, M. et al., Nature, 288:189-192 (1980).

[2] = tested on: human 2-5A-dependent RNase (recombinant and HeLa cell); experiment: as above; assay type: binding; details: competitor 100 nM; recombinant human enzyme in wheat germ extract; same pattern in HeLa cell extract
Procedure: as §1

32P-2-5A probe = experiment: 2-5A binding of lysine to asparagine mutants, uv crosslinking, phosphorimager analysis; details: wheat germ translation products; phosphorimager analysis of dried gel
Procedure: Briefly, the 2-5A probe, about 0.7 to 2.5 nM at 3,0009 Ci/mmole, is incubated for about one hour on ice with cell extract prepared as described, Silverman, R. H. and Krause, D., I.R.L. Press, Oxford, England, pp. 149-193 (1987), in the absence or presence of unlabeled oligonucleotide competitors. Covalent crosslinking is done under a uv lamp (308 nm) for one hour on ice and the proteins are separated on SDS/10% polyacrylamide gels.
The lysines in the truncated murine 2-5A-dependent RNase, clone ZB1, at positions 240 and 274 are mutated, individually and together, to asparagine residues.

2-5A probe = experiment: 2-5A binding activity of nested 3'-deletion clones (filter binding and uv crosslinking); details: expressed in wheat germ extract
Procedure: The set of nested 3'-deletions of the truncated murine 2-5A-dependent RNase cDNA, ZB1, is generated with exonuclease III/S1 nuclease digestion followed by filling-in with Klenow DNA Polymerase using the "Erase-A-Base"system (Promega).
as §1

poly(U) = experiment: ribonuclease assay with 2-5A-cellulose; assay type: biochemical; details: enzyme made in reticulocyte lysate, bound to 2-5A-cellulose, 30° C.
Procedure: (§2) Transcription of plasmids with phage RNA polymerases is in the presence of mGppppG as described (Promega) except that reaction mixtures are supplemented with 15% dimethyl sulfoxide and incubations are at about 37° C. for about 90 minutes. RNA is purified through Sephadex G50 spun-columns and ethanol precipitated prior to translation. Protein synthesis was performed, as described (Promega), at about 30° C. for about one hour in micrococcal nuclease-pretreated rabbit reticulocyte lysate or in an extract of wheat germ at about room temperature for about one hour and then at about […] for about 12 hours. Translation reactions contain about 50 μM zinc sulfate. […]
(§3) The ribonuclease assay with 2-5A-cellulose is performed, as described by Silverman, R. H., Anal. Biochem., 144:450-460 (1985). […] The matrix is then incubated with poly(U)-[^32 P]Cp or poly(C)-[^32 P]Cp (both at about 16 μM in nucleotide equivalents) at about 30° C. and the levels of acid-precipitable radioactive RNA are determined by filtration on glass-fiber filters.

poly(C) = experiment: ribonuclease assay with 2-5A-cellulose; assay type: biochemical; details: after one hour of incubation; enzyme bound to 2-5A-cellulose
Procedure: as §2, §3

Molecule: p3 (A2'p)2 A
- competition with 2-5A probe for binding to protein [1]: completely prevents probe binding
- concentration that prevents the 2-5A probe from binding ([1]; probe 2.4 nM, either protein (recombinant ZB1 and naturally occurring)): about 20 nM
- competition with 2-5A probe for binding to protein [2]: effectively competes

Molecule: p3 A2'pA
- concentration required to prevent 2-5A probe binding ([1]; probe 2.4 nM): > 10 µM

Molecule: p3 I2'pA2'pA
- concentration required to prevent 2-5A probe binding ([1]; probe 2.4 nM): about 1.0 μM

Molecule: (A2'p)2 A
- fold higher concentration than trimer 2-5A required to prevent probe binding ([1]; both proteins): 500 fold
- competition with 2-5A probe for binding to protein [1]: fails to interfere with binding
- concentration required to prevent 2-5A probe binding ([1]; probe 2.4 nM): 10 µM
- competition with 2-5A probe for binding to protein [2]: not prevented

- 2-5A binding activity relative to clone ZB1 (control) (32P-2-5A probe): 12.2%
B1: ZB1(Lys^240,274 -)Asn): double mutant of clone ZB1, lysines 240 and 274 replaced by asparagine (protein, UniProt Q05921 1-735, looked up, variant K240N K274N)
2-5A-dependent ribonuclease: METPDYNTPQGGTPSAGSQRTVVEDDSSLIKAVQKGDVVRVQQLLEKGADANACEDTWGWTPLHNAVQAGRVDIVNLLLSHGADPHRRKKNGATPFIIAGIQGDVKLLEILLSCGADVNECDENGFTAFMEAAERGNAEALRFLFAKGANVNLRRQTTKDKRRLKQGGATALMSAAEKGHLEVLRILLNDMKAEVDARDNMGRNALIRTLLNWDCENVEEITSILIQHGADVNVRGERGNTPLIAAVERKHTGLVQMLLSREGINIDARDNEGNTALLIAVDKQLKEIVQLLLEKGADKCDDLVWIARRNHDYHLVKLLLPYVANPDTDPPAGDWSPHSSRWGTALKSLHSMTRPMIGKLKIFIHDDYKIAGTSEGAVYLGIYDNREVAVKVFRENSPRGCKEVSCLRDCGDHSNLVAFYGREDDKGCLYVCVSLCEWTLEEFLRLPREEPVENGEDKFAHSILLSIFEGVQKLHLHGYSHQDLQPQNILIDSKKAVRLADFDQSIRWMGESQMVRRDLEDLGRLVLYVVMKGEIPFETLKTQNDEVLLTMSPDEETKDLIHCLFSPGENVKNCLVDLLGHPFFWTWENRYRTLRNVGNESDIKVRKCKSDLLRLLQHQTLEPPRSFDQWTSKIDKNVMDEMNHFYEKRKKNPYQDTVGDLLKFIRNIGEHINEEKKRGMKEILGDPSRYFQETFPDLVIYIYKKLKETEYRKHFPQPPPRLSVPEAVGPGGIQS

- 2-5A binding activity relative to clone ZB1 (2-5A probe): about 38.3%
B2: ZB13: murine 2-5A-dependent RNase deletion mutant, amino acids 1 to 294 (protein, UniProt Q05921 1-294, looked up, fragment)
chain: METPDYNTPQGGTPSAGSQRTVVEDDSSLIKAVQKGDVVRVQQLLEKGADANACEDTWGWTPLHNAVQAGRVDIVNLLLSHGADPHRRKKNGATPFIIAGIQGDVKLLEILLSCGADVNECDENGFTAFMEAAERGNAEALRFLFAKGANVNLRRQTTKDKRRLKQGGATALMSAAEKGHLEVLRILLNDMKAEVDARDNMGRNALIRTLLNWDCENVEEITSILIQHGADVNVRGERGKTPLIAAVERKHTGLVQMLLSREGINIDARDNEGKTALLIAVDKQLKEIVQLLLE

- 2-5A binding activity relative to clone ZB1 (2-5A probe): 1.9%
B3: ZB14: murine 2-5A-dependent RNase deletion mutant, amino acids 1 to 265, one P-loop motif deleted (protein, UniProt Q05921 1-265, looked up, fragment)
chain: METPDYNTPQGGTPSAGSQRTVVEDDSSLIKAVQKGDVVRVQQLLEKGADANACEDTWGWTPLHNAVQAGRVDIVNLLLSHGADPHRRKKNGATPFIIAGIQGDVKLLEILLSCGADVNECDENGFTAFMEAAERGNAEALRFLFAKGANVNLRRQTTKDKRRLKQGGATALMSAAEKGHLEVLRILLNDMKAEVDARDNMGRNALIRTLLNWDCENVEEITSILIQHGADVNVRGERGKTPLIAAVERKHTGLVQMLLSREGIN

B4: ZB15: murine 2-5A-dependent RNase deletion mutant, amino acids 1 to 218, both P-loop motifs deleted (protein, UniProt Q05921 1-218, looked up, fragment)
chain: METPDYNTPQGGTPSAGSQRTVVEDDSSLIKAVQKGDVVRVQQLLEKGADANACEDTWGWTPLHNAVQAGRVDIVNLLLSHGADPHRRKKNGATPFIIAGIQGDVKLLEILLSCGADVNECDENGFTAFMEAAERGNAEALRFLFAKGANVNLRRQTTKDKRRLKQGGATALMSAAEKGHLEVLRILLNDMKAEVDARDNMGRNALIRTLLNWDCENV
- 2-5A binding activity relative to clone ZB1 (2-5A probe): completely lacking in 2-5A binding activity

- loss of 2-5A binding activity as compared to clone ZB1 (2-5A probe): about 26%
B5: ZB11: murine 2-5A-dependent RNase deletion mutant, amino acid residues 1 to 342 (protein, UniProt Q05921 1-342, looked up, fragment)
chain: METPDYNTPQGGTPSAGSQRTVVEDDSSLIKAVQKGDVVRVQQLLEKGADANACEDTWGWTPLHNAVQAGRVDIVNLLLSHGADPHRRKKNGATPFIIAGIQGDVKLLEILLSCGADVNECDENGFTAFMEAAERGNAEALRFLFAKGANVNLRRQTTKDKRRLKQGGATALMSAAEKGHLEVLRILLNDMKAEVDARDNMGRNALIRTLLNWDCENVEEITSILIQHGADVNVRGERGKTPLIAAVERKHTGLVQMLLSREGINIDARDNEGKTALLIAVDKQLKEIVQLLLEKGADKCDDLVWIARRNHDYHLVKLLLPYVANPDTDPPAGDWSPHSSRW

B6: recombinant human 2-5A-dependent RNase: full-length human 2-5A-dependent RNase translated in vitro in reticulocyte lysate (protein, UniProt Q05823 1-741, looked up)
chain: MESRDHNNPQEGPTSSSGRRAAVEDNHLLIKAVQNEDVDLVQQLLEGGANVNFQEEEGGWTPLHNAVQMSREDIVELLLRHGADPVLRKKNGATPFILAAIAGSVKLLKLFLSKGADVNECDFYGFTAFMEAAVYGKVKALKFLYKRGANVNLRRKTKEDQERLRKGGATALMDAAEKGHVEVLKILLDEMGADVNACDNMGRNALIHALLSSDDSDVEAITHLLLDHGADVNVRGERGKTPLILAVEKKHLGLVQRLLEQEHIEINDTDSDGKTALLLAVELKLKKIAELLCKRGASTDCGDLVMTARRNYDHSLVKVLLSHGAKEDFHPPAEDWKPQSSHWGAALKDLHRIYRPMIGKLKFFIDEKYKIADTSEGGIYLGFYEKQEVAVKTFCEGSPRAQREVSCLQSSRENSHLVTFYGSESHRGHLFVCVTLCEQTLEACLDVHRGEDVENEEDEFARNVLSSIFKAVQELHLSCGYTHQDLQPQNILIDSKKAAHLADFDKSIKWAGDPQEVKRDLEDLGRLVLYVVKKGSISFEDLKAQSNEEVVQLSPDEETKDLIHRLFHPGEHVRDCLSDLLGHPFFWTWESRYRTLRNVGNESDIKTRKSESEILRLLQPGPSEHSKSFDKWTTKINECVMKKMNKFYEKRGNFYQNTVGDLLKFIRNLGEHIDEEKHKKMKLKIGDPSLYFQKTFPDLVIYVYTKLQNTEYRKHFPQTHSPNKPQCDGAGGASGLASPGC
modifications: full-length
notes: full-length human 2-5A-dependent RNase translated in vitro in reticulocyte lysate
- half-life of poly(U) degradation (poly(U)): about 10 minutes
- poly(C) degraded (poly(C)): 20%
